{"source": "ChEMBL document CHEMBL1201862", "about": "“PubChem BioAssay data set” (2004)", "key": {"[1]": {"test": "Late stage counterscreen for inhibitors of Trypanosoma brucei methionyl tRNA synthetase (MetRS): Luminescence-based cell-based high throughput dose response assay to identify compounds that are cytotoxic to Jurkat human T lymphocyte cells.", "type": "functional"}, "Galanin receptor type 3": {"molecular_target": "Galanin receptor type 3 (Homo sapiens, UniProt O60755)", "sequence (O60755 whole entry)": "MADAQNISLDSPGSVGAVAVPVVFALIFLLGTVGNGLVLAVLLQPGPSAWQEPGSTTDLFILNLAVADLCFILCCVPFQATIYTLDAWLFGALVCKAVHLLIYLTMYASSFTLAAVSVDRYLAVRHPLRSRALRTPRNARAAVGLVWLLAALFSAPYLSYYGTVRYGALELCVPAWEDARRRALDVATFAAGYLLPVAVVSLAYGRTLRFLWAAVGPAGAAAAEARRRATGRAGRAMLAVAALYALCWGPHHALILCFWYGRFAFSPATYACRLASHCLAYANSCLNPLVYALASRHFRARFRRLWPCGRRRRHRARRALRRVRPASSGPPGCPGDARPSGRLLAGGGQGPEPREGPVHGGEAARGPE", "test": "Fluorescence-based cell-based primary high throughput dose response assay to identify antagonists of the Galanin Receptor 3 (GalR3).", "type": "functional"}, "cells": {"test": "cells", "type": "functional, cell-based", "details": "HEK-CNG"}, "[2]": {"test": "Vero cell cytotoxicity, cytotoxicity control for M. tuberculosis inhibitor project, purified and synthesized samples, set 8 (AID 602431)", "type": "functional", "details": "Mycobacterium tuberculosis"}, "[3]": {"test": "THP-1 cell cytotoxicity, cytotoxicity control, set 6 (AID 602433)", "type": "functional", "details": "Mycobacterium tuberculosis"}, "[4]": {"test": "HeLa cell cytotoxicity, dose response, cytotoxicity control, 24 h, plate reader, dry powder (AID 686928)", "type": "functional, cell-based"}, "[5]": {"molecular_target": "Botulinum neurotoxin type F (Clostridium botulinum, UniProt P30996)", "sequence (P30996 1-436 limits assumed)": "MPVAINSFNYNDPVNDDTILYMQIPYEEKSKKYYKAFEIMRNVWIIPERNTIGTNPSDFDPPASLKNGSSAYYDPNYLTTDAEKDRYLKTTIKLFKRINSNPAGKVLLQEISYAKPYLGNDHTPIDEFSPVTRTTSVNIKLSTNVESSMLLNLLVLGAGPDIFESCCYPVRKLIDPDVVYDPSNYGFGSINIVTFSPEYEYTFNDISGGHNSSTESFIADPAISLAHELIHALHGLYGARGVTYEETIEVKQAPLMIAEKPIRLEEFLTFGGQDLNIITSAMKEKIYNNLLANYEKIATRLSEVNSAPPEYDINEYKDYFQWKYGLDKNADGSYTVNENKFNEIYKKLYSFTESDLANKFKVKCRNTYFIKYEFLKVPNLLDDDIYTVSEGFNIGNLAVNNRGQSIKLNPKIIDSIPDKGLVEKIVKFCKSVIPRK", "test": "High-throughput multiplex microsphere dose response for inhibitors of toxin protease, specifically Botulinum neurotoxin light chain F protease, compounds from Cherry Pick 02.", "type": "functional", "details": "read-out: EC50_MICROM"}, "[6]": {"test": "miR-122 activators in hepatoma reporter cells, dose response, cell-based, Huh7 psiCHECK-miR122, Renilla luciferase, cherry-picked (AID 651956);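 note: huh7 hepatoma cells stably carrying a psiCHECK-2 miR-122 sensor plasmid; renilla luciferase signal reporting endogenous miR-122 activity after 48 h compound exposure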", "type": "functional"}, "[7]": {"test": "LMP1-driven NF-kB reporter inhibition, dose response, cell-based, luciferase reporter, luminescence, dry powder, set 2 (AID 624376)", "type": "functional"}, "[8]": {"test": "inhibitors of LMP1-driven NF-kB reporter, dose response, cell-based, EBV LMP1, luciferase, dry powder, set 2 (AID 624361)", "type": "functional"}, "Paired box protein Pax-8": {"molecular_target": "Paired box protein Pax-8 (Homo sapiens, UniProt Q06710)", "sequence (Q06710 whole entry)": "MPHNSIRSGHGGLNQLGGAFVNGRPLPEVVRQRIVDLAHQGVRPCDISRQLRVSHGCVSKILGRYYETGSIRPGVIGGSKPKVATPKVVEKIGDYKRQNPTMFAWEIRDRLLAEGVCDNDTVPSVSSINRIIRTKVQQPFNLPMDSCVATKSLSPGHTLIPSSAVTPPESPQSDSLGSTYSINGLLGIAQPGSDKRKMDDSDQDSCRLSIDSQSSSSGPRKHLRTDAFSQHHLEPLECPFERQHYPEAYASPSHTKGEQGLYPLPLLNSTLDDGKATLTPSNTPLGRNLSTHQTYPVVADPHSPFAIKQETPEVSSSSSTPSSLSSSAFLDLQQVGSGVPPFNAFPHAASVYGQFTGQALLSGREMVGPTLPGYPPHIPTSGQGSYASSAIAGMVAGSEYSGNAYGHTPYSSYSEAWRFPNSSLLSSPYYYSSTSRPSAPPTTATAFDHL", "test": "inhibitors of PAX8-driven TPO luciferase reporter, dose response, RMG-I cells, cherry-pick (AID 687027)", "type": "functional, cell-based"}, "[9]": {"test": "IOSE-T80 ovarian epithelial cell cytotoxicity, dose response, cytotoxicity control for PAX8 inhibitor project, plate reader, dry powder samples (AID 743045)", "type": "functional, cell-based"}, "[10]": {"test": "A2780 ovarian cancer cell cytotoxicity, dose response, cytotoxicity control, plate reader, dry powder samples (AID 743046)", "type": "functional, cell-based"}, "[11]": {"test": "NIH:OVCAR-3 ovarian cancer cell cytotoxicity, dose response, PAX8 inhibitor project, plate reader, dry powder samples (AID 743044)", "type": "functional, cell-based"}, "[12]": {"test": "IGROV1 ovarian cancer cell cytotoxicity, dose response, PAX8 inhibitor project, plate reader, dry powder samples (AID 743043)", "type": "functional, cell-based", "details": "IGROV-1"}, "[13]": {"test": "cytotoxicity in OVCAR8 ovarian cancer cells, dose response, PAX8 project, cell-based, plate reader, dry powder samples (AID 743197)", "type": "functional", "details": "OVCAR-8"}, "[14]": {"molecular_target": "T1, Scavenger receptor class B member 1 (Mus musculus, UniProt Q61009)", "T1 sequence (Q61009 whole entry)": "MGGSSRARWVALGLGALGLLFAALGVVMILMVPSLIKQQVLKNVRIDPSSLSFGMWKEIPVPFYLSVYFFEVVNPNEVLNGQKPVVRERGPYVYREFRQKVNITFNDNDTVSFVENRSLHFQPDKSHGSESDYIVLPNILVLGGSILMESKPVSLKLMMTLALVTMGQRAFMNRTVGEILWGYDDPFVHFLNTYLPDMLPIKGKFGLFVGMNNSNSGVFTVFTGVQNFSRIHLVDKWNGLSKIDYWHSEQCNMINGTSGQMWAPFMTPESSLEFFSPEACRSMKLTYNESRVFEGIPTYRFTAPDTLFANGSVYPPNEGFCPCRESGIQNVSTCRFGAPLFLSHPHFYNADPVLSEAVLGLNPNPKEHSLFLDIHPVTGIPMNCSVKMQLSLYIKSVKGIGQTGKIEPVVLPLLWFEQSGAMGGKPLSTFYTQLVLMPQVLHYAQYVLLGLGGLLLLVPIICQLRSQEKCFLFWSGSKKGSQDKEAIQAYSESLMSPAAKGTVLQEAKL", "test": "inhibitors of SR-BI dependent HDL uptake, dose response, ldlA[mSR-BI] CHO cells, fluorescence plate reader, dry powder, set 9 (AID 623880)", "type": "functional, cell-based"}, "[15]": {"molecular_target": "T1, Scavenger receptor class B member 1", "test": "inhibitors of SR-BI-mediated HDL uptake, dose response, cell-based, ldlA[mSR-BI] CHO, DiI fluorescence, dry powder, set 10 (AID 624029)", "type": "functional"}, "[16]": {"test": "MITF Orthogonal Assay: SK-MEL-5 CTG Assay Measured in Cell-Based System Using Plate Reader - 2084-02_Inhibitor_Dose_DryPowder_Activity_Set7.", "type": "functional"}, "[17]": {"test": "MITF: Counter assay: A375 proliferation Measured in Cell-Based System Using Plate Reader - 2084-03_Inhibitor_Dose_DryPowder_Activity_Set8.", "type": "functional", "details": "A-375"}, "[18]": {"test": "TRPM1 promoter luciferase reporter signal decrease, dose response, MITF inhibitor project, cell-based, SK-MEL-5, dry powder, set 8 (AID 624430)", "type": "functional"}, "[19]": {"test": "Late stage assay provider results from the probe development effort to identify selective inhibitors of heat shock protein 90 (HSP90): Absorbance-based cell proliferation assay in SKBR3 cells.", "type": "functional", "details": "SK-BR-3"}, "[20]": {"test": "Late stage assay provider results from the probe development effort to identify selective inhibitors of heat shock protein 90 (HSP90): Absorbance-based cell proliferation assay in MCF7 cells.", "type": "functional"}, "[21]": {"test": "Counterscreen for […] of the human trace amine associated receptor 1 (TAAR1): Fluorescence-based cell-based high throughput dose response assay to identify nonselective Ga16 agonists.", "type": "functional"}, "[22]": {"molecular_target": "T2, Trace amine-associated receptor 1 (Homo sapiens, UniProt Q96RJ0)", "T2 sequence (Q96RJ0 whole entry)": "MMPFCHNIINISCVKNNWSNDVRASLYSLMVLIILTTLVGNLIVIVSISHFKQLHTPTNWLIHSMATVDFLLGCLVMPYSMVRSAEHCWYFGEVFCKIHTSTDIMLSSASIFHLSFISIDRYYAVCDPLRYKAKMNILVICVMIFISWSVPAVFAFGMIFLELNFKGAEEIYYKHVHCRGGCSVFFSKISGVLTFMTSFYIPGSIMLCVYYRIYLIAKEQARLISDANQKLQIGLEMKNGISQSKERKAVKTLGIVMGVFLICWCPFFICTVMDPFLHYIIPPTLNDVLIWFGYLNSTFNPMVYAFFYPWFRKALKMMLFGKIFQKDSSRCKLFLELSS", "test": "Fluorescence-based cell-based high throughput dose response assay to identify antagonists of the human trace amine associated receptor 1 (TAAR1).", "type": "functional"}, "[23]": {"test": "Counterscreen for antagonists of the human trace amine associated receptor 1 (hTAAR1): Fluorescence-based cell-based high throughput dose response assay to identify nonselective Ga16 antagonists.", "type": "functional"}, "[24]": {"molecular_target": "T2, Trace amine-associated receptor 1", "test": "Counterscreen for antagonists of the human trace amine associated receptor 1 (hTAAR1): Fluorescence-based cell-based high throughput dose response assay to identify TAAR1 Agonists.", "type": "functional"}}, "note": "The source made the active and inactive calls.", "data": [{"smiles": "O=C(CN1CCSC1=NCc1ccccc1)c1ccc(Cl)c(Cl)c1", "values": [{"measurement": "IC50", "setting": "[1]", "result": "83.2 µM (inactive)"}]}, {"smiles": "Cc1onc(-c2ccccc2Cl)c1C(=O)NNC(=O)c1cccc(F)c1", "values": [{"measurement": "IC50", "setting": "Galanin receptor type 3", "result": "> 29.9 µM (inactive)"}, {"measurement": "EC50", "setting": "cells", "result": "> 29.9 µM (inactive)"}]}, {"smiles": "O=C(CSc1nc2ccccc2c(=O)[nH]1)NC1CCCCC1", "values": [{"measurement": "CC50", "setting": "[2]", "result": "> 100 µM (inconclusive)"}, {"measurement": "CC50", "setting": "[3]", "result": "> 100 µM (inconclusive)"}, {"measurement": "AC50", "setting": "[4]", "result": "> 160 µM (inactive)"}]}, {"smiles": "COc1ccccc1Cc1c(-c2ccc(F)cc2)nc2cc(C)c(Br)c(C)n12", "values": [{"measurement": "EC50", "setting": "[5]", "result": "> 20 µM (inactive)"}]}, {"smiles": "COc1ccccc1C#Cc1cnc2c(c1)C(=O)N([C@H](C)CO)C[C@H](C)[C@@H](CN(C)C(=O)c1ccc3c(c1)OCO3)O2", "values": [{"measurement": "AC50", "setting": "[6]", "result": "13.6 µM (active)"}, {"measurement": "AbsAC35", "setting": "[7]", "result": 52.21, "unit": "µM"}, {"measurement": "AbsAC35", "setting": "[8]", "result": 41.32, "unit": "µM"}]}, {"smiles": "Cc1ccc(S(=O)(=O)Nc2ccc3c(c2)C(=O)N([C@H](C)CO)C[C@H](C)[C@@H](CN(C)S(=O)(=O)c2ccc(F)cc2)OCCCC[C@H](C)O3)cc1", "values": [{"measurement": "AC50", "setting": "Paired box protein Pax-8", "result": "2.11 µM (active)"}, {"measurement": "AC50", "setting": "[9]", "result": "6.87 µM (active)"}, {"measurement": "AC50", "setting": "[10]", "result": "7.45 µM (active)"}, {"measurement": "AC50", "setting": "[11]", "result": "9 µM (active)"}, {"measurement": "AC50", "setting": "[12]", "result": "14.8 µM (active)"}, {"measurement": "AC50", "setting": "[13]", "result": "11 µM (active)"}]}, {"smiles": "Cc1noc(C)c1S(=O)(=O)Nc1ccc2c(c1)C(=O)N([C@H](C)CO)C[C@@H](C)[C@H](CN(C)S(=O)(=O)c1ccc(Cl)cc1)O2", "values": [{"measurement": "AC50", "setting": "[14]", "result": "158 nM (active)"}, {"measurement": "AC50", "setting": "[15]", "result": "123 nM (active)"}]}, {"smiles": "O=C1C=C(Nc2cccc(Cl)c2)C(=O)c2ccccc21", "values": [{"measurement": "AC50", "setting": "[16]", "result": "683 nM (active)"}, {"measurement": "AC50", "setting": "[17]", "result": "22.3 µM (active)"}, {"measurement": "AC50", "setting": "[18]", "result": "23.9 µM (active)"}]}, {"smiles": "O=C(O)c1cccc(COc2ccc3cc(Br)c(=O)oc3c2)c1", "values": [{"measurement": "IC50", "setting": "[19]", "result": "> 100 µM (inactive)"}, {"measurement": "IC50", "setting": "[20]", "result": "> 100 µM (inactive)"}]}, {"smiles": "CSC(=S)N/N=C/c1c[nH]c2ccccc12", "values": [{"measurement": "EC50", "setting": "[21]", "result": "> 29.9 µM (inactive)"}, {"measurement": "IC50", "setting": "[22]", "result": "2.6 µM (active)"}, {"measurement": "IC50", "setting": "[23]", "result": "28.1 µM (inactive)"}, {"measurement": "EC50", "setting": "[24]", "result": "> 29.9 µM (inactive)"}]}]}
